Measured values: PMC6359713, “A Novel Dipeptidyl Peptidase IV Inhibitory Tea Peptide Improves Pancreatic β-Cell Function and Reduces α-Cell Proliferation in Streptozotocin-Induced Diabetic Mice” (International Journal of Molecular Sciences, 2019)
Entries after “also recorded” stand apart in the source; their conditions may differ.

Experiments:
DPP-IV [1] = target: T1, DPP-IV (Homo sapiens, UniProt P27487); assay: DPP-IV inhibitory assay (Gly-Pro p-nitroanilide); type: biochemical; details: n = 3; for DPP-IV inhibition, comparison among peptides I-IV: 62.5-1500 μg/mL
T1 construct: purchased Sigma-Aldrich D4943-1VL; host or cells: baculovirus-infected Sf9 insect cells
T1 sequence (P27487 whole entry): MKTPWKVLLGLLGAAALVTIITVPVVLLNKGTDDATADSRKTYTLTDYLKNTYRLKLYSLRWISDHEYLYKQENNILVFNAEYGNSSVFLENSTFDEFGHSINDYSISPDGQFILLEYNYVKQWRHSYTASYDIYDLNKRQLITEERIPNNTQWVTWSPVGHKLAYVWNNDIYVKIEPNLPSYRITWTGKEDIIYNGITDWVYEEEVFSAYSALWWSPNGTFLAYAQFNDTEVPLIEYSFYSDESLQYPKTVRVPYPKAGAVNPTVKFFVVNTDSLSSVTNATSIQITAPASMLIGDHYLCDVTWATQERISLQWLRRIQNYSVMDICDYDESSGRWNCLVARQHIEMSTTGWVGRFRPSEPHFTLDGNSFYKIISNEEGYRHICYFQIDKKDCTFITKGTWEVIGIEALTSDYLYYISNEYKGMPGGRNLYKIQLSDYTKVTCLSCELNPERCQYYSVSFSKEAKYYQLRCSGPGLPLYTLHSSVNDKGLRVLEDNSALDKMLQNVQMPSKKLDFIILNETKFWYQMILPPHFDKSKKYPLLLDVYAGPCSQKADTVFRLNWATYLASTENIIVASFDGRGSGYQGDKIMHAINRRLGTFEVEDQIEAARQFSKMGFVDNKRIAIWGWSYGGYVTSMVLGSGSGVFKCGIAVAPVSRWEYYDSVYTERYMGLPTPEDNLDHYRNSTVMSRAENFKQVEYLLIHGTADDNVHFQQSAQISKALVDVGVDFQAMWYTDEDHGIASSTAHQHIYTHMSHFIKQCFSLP
Source text: The enzyme, human recombinant DPP-IV (Lot: D4943-1VL), expressed in baculovirus-infected S/9 cells, the substrate, Gly-Pro p-nitroanilide (Gly-Pro pNA; Lot: G0513), and streptozotocin (STZ; Lot: V900890) were purchased from Sigma-Aldrich (St. Louis, MO, USA). […] Other reagents, such as Folin–Ciocalteu (Lot: 73104861), gallic acid (Lot: XW01499171), and Coomassie Blue R-250 (Lot: 71011381) were purchased from Sinopharm Chemical Reagent Co., Ltd. (Shanghai, China). Lapsang souchon (LS), a typical Chinese black tea, was obtained from a tea market in Hangzhou.
The DPP-IV inhibitory activities of the substance after ultrafiltration and the peptides identified (synthesized by Chinese Peptide Company, Hangzhou, China; purity of 96–97%) were evaluated. The DPP-IV inhibition assay was performed as described by Velarde-Salcedo et al., with slight modifications. The assay was performed in 96-well microplates, and 100 μL of enzyme (final concentration 1.9 U/L) was preincubated with the samples (the concentrated ultra-filtrate mentioned above and the synthesized peptide, with concentrations from 62.5–1500 μg/mL) at 37 °C for 15 min prior to the initiation of the reaction, by adding 50 μL of Gly-Pro p-nitroanilide (final concentration 0.29 mM). The final volume of the reaction system was 200 μL, and the reaction was conducted in 100 mM Tris-HCl buffer (pH 7.6). The absorbance was obtained at 405 nm in a microplate reader (Synergy H1, BioTek Instruments Inc., Winooski, VT, USA), after incubation at 37 °C for 1 h.

DPP-IV [2] = target: T1, DPP-IV; assay: Enzyme kinetics, Lineweaver-Burk plot, mode of inhibition; type: biochemical; details: peptide II 0, 1.02 and 2.04 mM; Gly-Pro pNA 0.29-4.64 mM; Tris-HCl pH 7.6, 37 °C, 60 min, 405 nm
Method: The initial rate of hydrolysis of the substrate Gly-Pro p-nitroanilide by DPP-IV was measured using substrate concentrations of 0.29, 0.58, 1.16, 2.32, and 4.64 mM (final assay concentrations) in the absence (100 mM Tris-HCl buffer, pH 7.6) and presence of different concentrations of the peptide II (1.02 and 2.04 mM, respectively). The substrate (50 μL), with or without an inhibitor (50 μL), was pre-incubated at 37 °C for 15 min, and the reaction was started by the addition of 100 μL of the DPP-IV enzyme (final concentration: 1.9 U/L). The absorbance of the released p-nitroanilide was monitored at 37 °C and 405 nm for 60 min using a microplate reader (Synergy H1, BioTek Instruments Inc.). Lineweaver–Burk plots of DPP-IV activity in the absence and presence of peptide II were created to show the modes of inhibition.

[3] = HbA1c in STZ-induced hyperglycemic mice; type: in vivo, mouse (male ICR); details: gavage daily, 57 days
Method: (§1) Male ICR mice at the age of four weeks were obtained from the Laboratory Animal Center of Zhejiang University (Hangzhou, China) and housed under a 12 h light/dark cycle with free access to food and water. The animal protocol was approved by the Committee on the Ethics of Animal Experiments of Zhejiang University (Permit Number: SYXK 2018-0001, 3 January 2018), and all experiments were performed in accordance with Zhejiang University Laboratory Animal Center Guidelines and the Regulations for Laboratory Animals Care and Usage. The mice were divided into four groups: non-STZ, STZ, STZ plus sitagliptin, and STZ plus peptide II. The mice were injected with STZ (50 mg/kg) dissolved into sodium citrate buffer (pH 4.5) for three successive days to induce hyperglycemia. Every group contained 10 mice. […] The levels of HbA1c were measured using an automatic analyzer MQ-2000pt produced by Medconn Medical Technology Co. (Shanghai, China). Plasma insulin, glucagon, GLP-1, and DPP-IV concentrations were measured using a mouse ELISA kit (Shanghai Lengton Bioscience Co., Ltd., Shanghai, China).

[4] = Plasma glucagon in STZ-induced hyperglycemic mice; type: in vivo, mouse (male ICR); details: peptide II 400 mg/kg or sitagliptin 4 mg/kg, gavage daily, day 57, vs STZ control
Method: as §1

[5] = Plasma insulin in STZ-induced hyperglycemic mice; type: in vivo, mouse (male ICR); details: for Blood insulin level: peptide II 400 mg/kg (n = 7) or sitagliptin 4 mg/kg (n = 6), mouse ELISA, STZ control 9.79 ± 3.62 mU/L, mean ± SD
Method: as §1

[6] = Blood GLP-1 in STZ-induced hyperglycemic mice; type: in vivo, mouse (male ICR); details: gavage daily; for GLP-1 concentration vs STZ control, significance / GLP-1 concentration in blood: day 57; for GLP-1 concentration in blood: peptide II 400 mg/kg (n = 7) or sitagliptin 4 mg/kg (n = 6), mouse ELISA, STZ control 9.85 ± 1.96, normal control 15.52 ± 3.17 pmol/L, mean ± SD; for Increase in GLP-1 concentration vs STZ control: peptide II 400 mg/kg or sitagliptin 4 mg/kg, after 57 days
Method: as §1

pancreatic alpha-cells = assay: Islet alpha-cell (glucagon-positive) area in STZ-treated mice, immunohistochemistry; type: in vivo, mouse (male ICR); details: gavage daily; for Alpha-cell area / proliferation: peptide II 400 mg/kg (n = 7) or sitagliptin 4 mg/kg (n = 6), day 57, vs STZ control
Method: as §1, with “pancreases” for “levels of HbA1c”, “resected immediately after the mice were sacrificed and fixed in 4% (w/v) formaldehyde. The immunohistochemistry procedures were performed according to Y. Takeda et al.. The stained sections were observed by an inverted fluorescence microscopy (NIKON ECLIPSE TI-SR; Nikon Corporation, Tokyo, Japan), and digital images were collected” for “measured”, “Nikon imaging system (NIKON DS-U3).” for “an automatic analyzer MQ-2000pt produced by Medconn Medical Technology Co. (Shanghai, China). Plasma insulin, glucagon, GLP-1, and DPP-IV concentrations were measured using a mouse ELISA kit (Shanghai Lengton Bioscience Co., Ltd., Shanghai, China).”

pancreatic beta-cells = assay: Islet beta-cell (insulin-positive) area and function in STZ-treated mice, immunohistochemistry; type: in vivo, mouse (male ICR); details: gavage daily; for Beta-cell area: peptide II 400 mg/kg (n = 7) or sitagliptin 4 mg/kg (n = 6), day 57, insulin-positive area per islet area
Method: as §1, with “pancreases” for “levels of HbA1c”, “resected immediately after the mice were sacrificed and fixed in 4% (w/v) formaldehyde. The immunohistochemistry procedures were performed according to Y. Takeda et al.. The stained sections were observed by an inverted fluorescence microscopy (NIKON ECLIPSE TI-SR; Nikon Corporation, Tokyo, Japan), and digital images were collected” for “measured”, “Nikon imaging system (NIKON DS-U3).” for “an automatic analyzer MQ-2000pt produced by Medconn Medical Technology Co. (Shanghai, China). Plasma insulin, glucagon, GLP-1, and DPP-IV concentrations were measured using a mouse ELISA kit (Shanghai Lengton Bioscience Co., Ltd., Shanghai, China).”

With QTDEYGNPPR [Peptide I] the “DPP-IV inhibition, comparison among peptides I-IV” value (DPP-IV [1]) was “lower than peptide IV, but higher than peptide III”.

With AGFAGDDAPR [Peptide II] the “DPP-IV enzyme activity inhibited” value (DPP-IV [1]; 1000 μg/mL synthesized peptide, Tris-HCl pH 7.6, 37 °C, preincubation 15 min, 1 h, 405 nm) was ~50%, the “DPP-IV inhibition, comparison among peptides I-IV” value (DPP-IV [1]) was “much higher inhibitory activity at both low and high concentrations; also recorded: the greatest DPP-IV inhibitory activity” and the “Mode of DPP-IV inhibition” value (DPP-IV [2]) was “competitive inhibitory mode”. The “HbA1c level vs STZ control” value ([3]; peptide II 400 mg/kg, n = 7) was “did not show a significant difference in HbA1c levels compared to STZ control animals”, the “Plasma glucagon levels” value [4] was “no amelioration of the glucagon levels” and the Blood insulin level ([5]; gavage daily, day 57) was 42.30 ± 12.64 mU/L. The “Increase of plasma insulin level vs STZ control” value ([5]; peptide II 400 mg/kg or sitagliptin 4 mg/kg, gavage daily, 57 days) was 4.3 fold, the “Insulin improvement compared with sitagliptin” value ([5]; peptide II 400 mg/kg vs sitagliptin 4 mg/kg, day 57) was “improved the insulin levels more effectively than sitagliptin” and the “GLP-1 concentration vs STZ control, significance” value [6] was “significantly higher than that in STZ control”. The “GLP-1 concentration in blood” value [6] was 19.22 ± 6.79 pmol/L, the “Increase in GLP-1 concentration vs STZ control” value [6] was 9.3 pmol/L and the “Alpha-cell area / proliferation” value (pancreatic alpha-cells) was “suppressed proliferation of pancreatic alpha-cells; also recorded: lower than that in the STZ control group, but not significantly”. For the same compound, the “Beta-cell area” value (pancreatic beta-cells) was “not obvious” and the “Beta-cell proliferation / function” value (pancreatic beta-cells; peptide II 400 mg/kg, 57 days) was “improved function of pancreatic beta-cells; also recorded: only slight proliferation”.

For `N[C@@H](CC(=O)N1CCn2c(nnc2C(F)(F)F)C1)Cc1cc(F)c(F)cc1F` [sitagliptin, reference compound], the HbA1c level ([3]; sitagliptin 4 mg/kg, n = 6, STZ control 7.30 ± 0.70%, mean ± SD) was 5.98 ± 1.63%, the “Plasma glucagon levels” value [4] was “no amelioration of the glucagon levels” and the Blood insulin level ([5]; gavage daily, day 57) was 27.35 ± 5.65 mU/L. The “GLP-1 concentration vs STZ control, significance” value [6] was “without any significant difference compared with the STZ control”, the “GLP-1 concentration in blood” value [6] was 12.57 ± 3.38 pmol/L and the “Increase in GLP-1 concentration vs STZ control” value [6] was 2.7 pmol/L. For the same compound, the “Alpha-cell area / proliferation” value (pancreatic alpha-cells) was “suppressed”, the “Decrease of alpha-cell area vs STZ-treated mice” value (pancreatic alpha-cells; sitagliptin 4 mg/kg, day 57, glucagon-positive area per islet area, n = 6) was 37.8% and the “Beta-cell area” value (pancreatic beta-cells) was “not obvious”.

For IDESLR [Peptide III], the “DPP-IV inhibition” value (DPP-IV [1]; 1500 μg/mL, compared among peptides I-IV) was “the lowest activity” and the “DPP-IV inhibition” value (DPP-IV [1]; concentration below 1000 μg/mL) was “almost no inhibition”.

In the case of IQDKEGIPPDQQR [IV], the “DPP-IV inhibition, comparison among peptides I-IV” value (DPP-IV [1]) is reported as “surpassed by peptide II with increasing concentration”.
